Data published in patent publication US5028625A, “Acid addition salt of ibuprofen and meglumine” (priority 1989, dated 1991).
Structures can show the parent of a compound that is named as a salt.

Assays:
[1] = Redissolution in water of evaporated salt residue, pH and taste; type: physicochemical
Method: The meglumine salt of ibuprofen was formed by dissolving 10 grams of Ibuprofen, USP, in 330 milliliters of Alcohol, USP to which was added 10 grams of Meglumine, USP. The ibuprofen-meglumine molar ratio was 1:1.0566.

[2] = in alcohol; cited from earlier work

ibuprofen concentration of clear solution as the meglumine salt ([1]; 740 milligrams of residue in 7.5 milliliters of water, 200 mg/5ml) | pH of salt solution ([1]; approximately 4% w/v ibuprofen in water) | SMILES | meglumine alcohol solubility limit [2]
approximately 4 % w/v | 8.35 | CC(C)Cc1ccc(C(C)C(=O)O)cc1 (stereo not drawn) [meglumine ibuprofen salt] | 
 |  | CNC[C@H](O)[C@@H](O)[C@H](O)[C@H](O)CO [meglumine, Meglumine] | 1.2 grams in 100 ml
